In patent US11396505B2, “Inhibitors of CaMKK2 and uses of same” (New York University, priority 2019, dated 2022):

Columns and labels:
CaMKK2 [1] = target: T1, CaMKK2 (Homo sapiens, UniProt Q96RR4); test: CaMKK1/2 biochemical assay, 32P radiometric kinase assay (CaMKK2)
CaMKK2 [2] = target: T1, CaMKK2; test: as above; details: for inhibition at 0.2 µM: 0.2 μM compound, read-out: CaMKK2 % inhibition @ concentrations shown, 0.2 μM; for inhibition at 0.5 µM: 0.5 μM compound, read-out: CaMKK2 % inhibition @ concentrations shown, 0.5 μM; for inhibition at 10 µM: 10 μM compound, read-out: CaMKK2 % inhibition @ concentrations shown, 10 μM
Description: (§1) The following is an example of a CaMKK1/2-biochemical assay. Compounds were tested for CaMKK1/2 inhibition using a ^32P radiometric kinase assay as follows: A freshly prepared kinase reaction buffer (20 mM Hepes (pH 7.5), 10 mM MgCl2, 1 mM EGTA, 0.02% Brij35, 0.02 mg/ml BSA, 0.1 mM Na3VO4, 2 mM DTT, 1% DMSO) was treated with Myelin Basic Protein (final concentration=20 μM), CaCl2) (final concentration=1.5 mM), Calmodulin (final concentration=0.96 μM) and either CaMKK2 (final reaction concentration=120 nM) or CaMKK1 (final reaction concentration=150 nM) and gently mixed. Compounds were added as aliquots from 10 mM DMSO stock solutions such that the final compound concentration in the assay was either 10 μM, 0.5 μM or 0.2 μM. This mixture was allowed to incubate for 20 minutes at room temperature. ^32P-ATP (specific activity 10 μCi/μL) was added and the mixture was allowed to incubate for 2 hours at room temperature. The reaction mixture was spotted onto P81 ion exchange paper. The kinase activity was detected by the filter binding method.

CaMKK1 = CaMKK1 (Homo sapiens, UniProt Q8N5S9); test: CaMKK1/2 biochemical assay, 32P radiometric kinase assay (CaMKK1)
Description: as §1

[3] = despite achieving high plasma concentrations; cited from earlier work
ArH receptor = target: T2, ArH receptor (Homo sapiens, UniProt P35869); details: cited from earlier work
T2 sequence (P35869 11-848): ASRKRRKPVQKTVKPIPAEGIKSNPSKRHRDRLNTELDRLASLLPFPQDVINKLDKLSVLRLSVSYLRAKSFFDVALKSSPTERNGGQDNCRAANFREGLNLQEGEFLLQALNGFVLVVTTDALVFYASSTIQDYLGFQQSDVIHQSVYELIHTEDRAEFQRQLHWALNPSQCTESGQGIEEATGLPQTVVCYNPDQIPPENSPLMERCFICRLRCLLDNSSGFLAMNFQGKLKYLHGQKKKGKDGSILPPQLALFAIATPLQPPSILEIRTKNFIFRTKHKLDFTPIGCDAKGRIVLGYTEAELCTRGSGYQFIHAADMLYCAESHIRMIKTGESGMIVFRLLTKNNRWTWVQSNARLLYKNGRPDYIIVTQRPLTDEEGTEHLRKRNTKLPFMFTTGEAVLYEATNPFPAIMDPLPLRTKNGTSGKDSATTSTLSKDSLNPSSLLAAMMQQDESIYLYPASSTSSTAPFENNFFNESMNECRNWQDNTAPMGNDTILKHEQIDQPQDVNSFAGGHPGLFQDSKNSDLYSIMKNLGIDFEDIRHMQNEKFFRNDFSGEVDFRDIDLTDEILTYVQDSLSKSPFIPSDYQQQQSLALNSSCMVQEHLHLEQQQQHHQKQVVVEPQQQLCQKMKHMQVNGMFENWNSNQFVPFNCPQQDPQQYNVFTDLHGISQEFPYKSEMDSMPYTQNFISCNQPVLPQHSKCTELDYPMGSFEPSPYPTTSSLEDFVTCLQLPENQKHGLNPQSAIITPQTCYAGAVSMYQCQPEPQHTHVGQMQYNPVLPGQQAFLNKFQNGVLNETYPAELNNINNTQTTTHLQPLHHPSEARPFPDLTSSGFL

[4] = cited from earlier work
[5] = cited from earlier work; remark: listed apart in the source

IC50 (CaMKK2 [1]) [nM]	inhibition at 0.2 µM (CaMKK2 [2]) [%]	inhibition at 0.5 µM (CaMKK2 [2]) [%]	inhibition at 10 µM (CaMKK2 [2]) [%]	IC50 (CaMKK1) [nM]	Biochemical Data CaMKK1, inh @ 0.5 μM (CaMKK1) [% inh @ 0.5 μM]	Biochemical Data CaMKK2, inh @ 0.5 μM (CaMKK2 [2]) [% inh @ 0.5 μM]	Structure (SMILES)	also measured
190	55	81	98	–	–	–	O=C1OCCN1c1ccc2[nH]nc(/C=C/c3ccccn3)c2c1 [Example 4, (E)-3-(3-(2-(pyridin-2-yl)vinyl)-1H-indazol-5-yl)oxazolidin-2-one]	–
33	81	–	–	536	–	–	COc1ccc(/C=C/c2n[nH]c3ccc(N4CCOC4=O)cc23)cc1 [Example 31, (E)-3-(3-(4-methoxystyryl)-1H-indazol-5-yl)oxazolidin-2-one]	–
70	80	94	100	141	–	–	O=C1OCCN1c1ccc2[nH]nc(-c3cc4ccccc4[nH]3)c2c1 [Example 3, 3-(3-(1H-indol-2-yl)-1H-indazol-5-yl)oxazolidin-2-one]	–
–	–	–	–	–	–	–	COc1cccc2cc(-c3nc([C@H]4CC[C@H](C(=O)O)CC4)n4ncnc(N)c34)[nH]c12 [OSI-027]	tissue and tumor penetration [3]: poor tissue and tumor penetration
–	–	–	–	–	–	–	O=C(O)c1ccc2c3c1cccc3c(=O)n1c3ccccc3nc21 [STO-609]	agonist of the ArH receptor (ArH receptor): 43 nM; brain entry ([4]; 9.4 mg/kg ip dose): fails to enter the brain; plasma concentrations ([4]; 9.4 mg/kg ip dose): > 30 µM; tissue Cmax values ([4]; tissue penetration, 9.4 mg/kg ip): ≤ 1 µM; elimination completed in ([4]; tissues): ≤ 8 h (h); permeability [5]: poor permeability
–	–	–	–	–	<5	20	CCOC(=O)c1n[nH]c2ccc(N3CCOC3=O)cc12 [CL-629]	–
–	–	33	–	–	7	33	O=C1OCCN1c1ccc2[nH]nc(-c3ccncc3)c2c1 [Example 13, 3-(3-(pyridin-4-yl)-1H-indazol-5-yl)oxazolidin-2-one]	–
–	–	–	98	164	–	–	O=C1OCCN1c1ccc2[nH]nc(-c3cc4ccccc4o3)c2c1 [Example 2, 3-(3-(Benzofuran-2-yl)-1H-indazol-5-yl)oxazolidin-2-one]	–
–	–	26	–	–	12	26	C=Cc1n[nH]c2ccc(N3CCOC3=O)cc12 [Example 8, 3-(3-vinyl-1H-indazol-5-yl)oxazolidin-2-one]	–
–	36	–	–	–	–	–	O=C1OCCN1c1ccc2[nH]nc(-c3cccc(-c4ccccc4)c3)c2c1 [Example 26, 3-(3-([1,1′-biphenyl]-3-yl)-1H-indazol-5-yl)oxazolidin-2-one]	Biochemical Data CaMKK1, inh @ 0.2 μM (CaMKK1; 0.2 μM): <5% inh @ 0.2 μM; Biochemical Data CaMKK2, inh @ 0.2 μM (CaMKK2 [2]; 0.2 μM): 36% inh @ 0.2 μM
